Key:
Format in all cases: biochemical
[1] = molecular target: JNK3 (Homo sapiens, UniProt P53779); assay: JNK3 inhibition assay (spectrophotometric coupled-enzyme assay); settings: 10 μM ATP, 10 nM activated JNK3
Protocol: Compounds were assayed for the inhibition of JNK3 by a spectrophotometric coupled-enzyme assay. In this assay, a fixed concentration of activated JNK3 (10 nM) was incubated with various concentrations of a potential inhibitor dissolved in DMSO for 10 minutes at 30° C. in a buffer containing 0.1 M HEPES buffer, pH 7.5, containing 10 mM MgCl2, 2.5 mM phosphoenolpyruvate, 200 μM NADH, 150 μg/mL pyruvate kinase, 50 μg/mL lactate dehydrogenase, and 200 μM EGF receptor peptide. The EGF receptor peptide is a phosphoryl acceptor in the JNK3-catalyzed kinase reaction. The reaction was initiated by the addition of 10 μM ATP and the assay plate is inserted into the spectrophotometer's assay plate compartment that was maintained at 30° C. The decrease of absorbance at 340 nm was monitored as a function of time. The rate data as a function of inhibitor concentration was fitted to competitive inhibition kinetic model to determine the Ki.

[2] = molecular target: CDK-2/Cyclin A (Homo sapiens, UniProt P24941); assay: CDK2 inhibition assay (coupled enzyme assay); settings: 100 μM ATP, 25 nM CDK-2/Cyclin A
Protocol: Compounds were screened for their ability to inhibit CDK-2/Cyclin A using a standard coupled enzyme assay (Fox et al (1998) Protein Sci 7, 2249). Reactions were carried out in 100 mM HEPES pH 7.5, 10 mM MgCl2, 25 mM NaCl, 1 mM DTT and 1.5% DMSO. Final substrate concentrations in the assay were 100 μM ATP (Sigma chemicals) and 100 μM peptide (American Peptide, Sunnyvale, Calif.). Assays were carried out at 30° C. and 25 nM CDK-2/Cyclin A. Final concentrations of the components of the coupled enzyme system were 2.5 mM phosphoenolpyruvate, 350 μM NADH, 30 μg/ml pyruvate kinase and 10 μg/ml lactate dehydrogenase.
An assay stock buffer solution was prepared containing all of the reagents listed above, with the exception of CDK-2/Cyclin A, DTT and the test compound of interest. 56 μl of the test reaction was placed in a 384 well plate followed by addition of 1 μl of 2 mM DMSO stock containing the test compound (final compound concentration 30 μM). The plate was preincubated for ˜10 minutes at 30° C. and the reaction initiated by addition of 10 μl of enzyme (final concentration 25 nM). Rates of reaction were obtained using a BioRad Ultramark plate reader (Hercules, Calif.) over a 5 minute read time at 30° C. Compounds showing >50% inhibition versus standard wells containing DMSO, but no compound, were titrated and IC50's determined using a similar protocol.

[3] = molecular target: T1, JAK3 (Homo sapiens, UniProt P52333); assay: JAK3 inhibition assay; settings: 2 μM ATP, ELISA read at 450 nm
T1 sequence (P52333 1-1124): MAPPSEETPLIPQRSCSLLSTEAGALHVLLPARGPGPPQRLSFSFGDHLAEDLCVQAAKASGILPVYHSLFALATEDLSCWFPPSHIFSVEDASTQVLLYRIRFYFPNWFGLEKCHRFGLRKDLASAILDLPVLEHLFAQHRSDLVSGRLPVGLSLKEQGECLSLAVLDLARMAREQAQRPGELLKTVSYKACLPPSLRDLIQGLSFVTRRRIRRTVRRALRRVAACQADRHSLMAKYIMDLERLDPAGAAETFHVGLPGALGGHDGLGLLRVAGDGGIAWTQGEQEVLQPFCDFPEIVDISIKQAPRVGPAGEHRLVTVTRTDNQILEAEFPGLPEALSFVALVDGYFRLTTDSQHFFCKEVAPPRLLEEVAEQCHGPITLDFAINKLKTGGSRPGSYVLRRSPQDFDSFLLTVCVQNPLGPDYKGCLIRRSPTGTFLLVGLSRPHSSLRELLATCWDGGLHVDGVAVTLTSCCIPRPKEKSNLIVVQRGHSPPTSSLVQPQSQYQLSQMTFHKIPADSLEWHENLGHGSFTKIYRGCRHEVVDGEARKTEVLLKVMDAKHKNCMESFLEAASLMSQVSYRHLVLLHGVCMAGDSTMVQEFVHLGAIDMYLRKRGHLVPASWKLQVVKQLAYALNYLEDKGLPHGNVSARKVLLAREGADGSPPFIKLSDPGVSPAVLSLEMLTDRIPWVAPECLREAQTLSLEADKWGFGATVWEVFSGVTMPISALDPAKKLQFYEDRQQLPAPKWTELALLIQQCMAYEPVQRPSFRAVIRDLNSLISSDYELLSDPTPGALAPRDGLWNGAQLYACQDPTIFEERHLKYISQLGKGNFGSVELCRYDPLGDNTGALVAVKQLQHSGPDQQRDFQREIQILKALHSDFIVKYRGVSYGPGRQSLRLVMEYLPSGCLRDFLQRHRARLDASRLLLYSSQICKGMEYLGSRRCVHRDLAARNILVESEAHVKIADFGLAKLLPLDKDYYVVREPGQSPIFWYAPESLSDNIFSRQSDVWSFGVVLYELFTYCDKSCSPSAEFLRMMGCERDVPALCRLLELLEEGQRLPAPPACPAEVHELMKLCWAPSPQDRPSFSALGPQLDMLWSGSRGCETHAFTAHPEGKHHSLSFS
Protocol: Compounds were screened for their ability to inhibit JAK3 according to the method described by G. R. Brown, et al, Bioorg. Med. Chem. Lett. 2000, vol. 10, pp 575–579 in the following manner. Into Maxisorb plates, previously coated at 4° C. with Poly (Glu, Ala, Tyr) 6:3:1 then washed with phosphate buffered saline 0.05% and Tween (PBST), was added 2 μM ATP, 5 MM MgCl2, and a solution of compound in DMSO. The reaction was started with JAK enzyme and the plates incubated for 60 minutes at 30° C. The plates were then washed with PBST, 100 μL HRP-Conjugated 4G10 antibody was added, and the plate incubated for 90 minutes at 30° C. The plate was again washed with PBST, 100 μL TMB solution is added, and the plates were incubated for another 30 minutes at 30° C. Sulfuric acid (100 μL of 1M) was added to stop the reaction and the plate is read at 450 nm to obtain the optical densities for analysis to determine Ki values.

Chain of JNK3 (P53779 whole entry, species assumed): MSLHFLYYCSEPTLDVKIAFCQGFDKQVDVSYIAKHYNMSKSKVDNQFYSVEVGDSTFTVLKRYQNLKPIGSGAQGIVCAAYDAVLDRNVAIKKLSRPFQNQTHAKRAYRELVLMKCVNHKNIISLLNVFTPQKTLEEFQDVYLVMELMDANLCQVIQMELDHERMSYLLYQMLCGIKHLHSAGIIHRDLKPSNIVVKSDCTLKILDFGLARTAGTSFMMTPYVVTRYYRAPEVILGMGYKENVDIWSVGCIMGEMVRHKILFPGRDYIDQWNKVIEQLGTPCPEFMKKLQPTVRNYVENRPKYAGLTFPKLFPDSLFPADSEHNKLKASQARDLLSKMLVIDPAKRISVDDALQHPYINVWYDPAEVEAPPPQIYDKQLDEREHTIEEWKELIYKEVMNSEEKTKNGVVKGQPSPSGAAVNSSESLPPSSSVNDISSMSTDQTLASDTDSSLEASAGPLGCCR

NS(=O)(=O)c1ccc(Nc2nccc(-c3ccc4c(c3)NC(=O)CO4)n2)cc1 [IVa-23]
Ki [1]: < 1 µM
Ki [2]: < 1 µM
Ki [3]: < 5 µM

CN1C(=O)COc2ccc(-c3ccnc(Nc4ccc(S(N)(=O)=O)cc4)n3)cc21 [IVa-24]
Ki [1]: < 1 µM
Ki [2]: < 1 µM
Ki [3]: < 5 µM
